In data set [1] the test system is acetic acid induced writhing. As to the kind of experiment: Acetic acid writhing test (acute pain model). As to conditions: Mus musculus, po. It is filed as in vivo, mice. As for the experimental part:
Phenylbenzoquinone and acetic writhing tests in mice follow the methods described by Hendershot et al (J. Pharmacol. Exp. Ther. 1959, 125: 237-240): Mice are injected with phenylbenzoquinone (PBQ) (1.25 mg/kg ip.) or acetic acid (0.5% ip.). This treatment induces a recognizable writhing response in control animals. The number of writhes is counted for 10 minutes beginning 5 minutes after injection of PBQ or acetic acid.

A short description of data set [2]: Sedative effects after oral dosing. As to conditions: dosages of up to 100 mg/kg p.o. The data set is classed as in vivo.
In another data set the test system is hot plate latency. Briefly: Hot plate test (acute pain model). The settings on record: for Latency of animal to remove itself from the hotplate seconds ± STDerr: 30 minutes after administration; for analgesic effect in the hot plate test (in words): i.p., morphine 7.5 mg/kg, compound 1 0.1 mg/kg, sumatriptan 10 mg/kg. The data set is classed as in vivo, mice. As for the experimental part:
Hot plate test in mouse or rat according to Eddy and Leimbach (J. Pharmacol. Exp. Ther. 1953, 107: 385-393): Mice or rats are placed onto a hot metal plate maintained at 54° C. for mice or 52° C. for rats surrounded by a Plexiglas cylinder (Height: 13 cm; Diameter: 19 cm). The latency to the first foot-lick is measured (maximum: 30 seconds).
Compound 1 and other compounds were tested on the hotplate 30 minutes after intraperitoneal administration. A description of the method is given above.
(Thermal pain tests record how soon the animal reacts.)

Entries after “also recorded” stand apart in the source; their conditions may differ.

By ED50 is commonly meant the dose at which the effect has come halfway, by size or by number of responders.

As for `Nc1cc2cccc(N3CCNCC3)c2oc1=O` [Compound 1, 3-amino-8-(1-piperazinyl)-2H-1-benzopyran-2-one], the ED50 in data set [1] turned out to be 1.82 mg/kg; with hot plate latency (Mus musculus, po, read-out: ED50 hot plate test) it was 3.2 mg/kg. Further, in data set [2], the sedative effects result is given as “devoid of sedative effects”. The “Latency of animal to remove itself from the hotplate seconds ± STDerr” value (shortened to “Latency of animal to remove itself”) with hot plate latency (0.1 mg/kg i.p.) came to 8.4 ± 0.5 s.
As to `CNS(=O)(=O)Cc1ccc2[nH]cc(CCN(C)C)c2c1` [sumatriptan], the “Latency of animal to remove itself” value in the data set with hot plate latency (10 mg/kg i.p.) was 3.9 ± 0.3 s. Further, the “analgesic effect in the hot plate test (in words)” value in the data set on hot plate latency was “inactive”; with hot plate latency (listed as Sumatriptan), “completely inactive”. Moreover, the “antagonism of the analgesic effect of compound 1 in the hot plate test” value in the data set on hot plate latency (sumatriptan 10 mg/kg i.p. with compound 1 0.1 mg/kg i.p., P-value=0.0001, Wilcoxon test) is “nearly completely antagonizes; also recorded: nearly completely blocked”.
Consider `CN1CC[C@]23c4c5ccc(O)c4O[C@H]2[C@@H](O)C=C[C@H]3[C@H]1C5` [morphine], for which, in the data set on hot plate latency (7.5 mg/kg i.p.), the “Latency of animal to remove itself” value turned out to be 7.8 ± 0.3 s. Besides, in the data set on hot plate latency, the “analgesic effect in the hot plate test (in words)” value was “nearly doubles the latency”.

The values are drawn from patent US20050215567A1, “1-[2H-1-benzopyran-2-one-8-yl]-piperazine derivatives for the treatment of pain” (SOLVAY PHARMACEUTICALS B.V., priority 2004, published 2005).
